Measurements as given in ChEMBL document CHEMBL5113512, “β-Nitrostyrene derivatives as broad range potential antifungal agents targeting fungal cell wall” (2022).
Values after ≈ are worked out from the molar mass of the structure shown.

Legend:
Assay type in all cases: functional
[Candida] auris [1] = Antifungal activity against Candida auris 102 assessed as inhibition of fungal growth by broth microdilution method; conditions: Candidozyma auris
Candida albicans [2] = assay: Antifungal activity against Candida albicans ATCC 24433 overexpressing transporter protein F5 assessed as inhibition of fungal growth by broth microdilution method
Candida albicans [3] = assay: Antifungal activity against Candida albicans ATCC 24433 overexpressing transporter protein GU5 assessed as inhibition of fungal growth by broth microdilution method
Candida albicans [4] = assay: Antifungal activity against Candida albicans ATCC 24433 overexpressing ADCDR1-GFP assessed as inhibition of fungal growth by broth microdilution method
Candida albicans [5] = assay: Antifungal activity against Candida albicans ATCC 24433 overexpressing ADPDR5-GFP assessed as inhibition of fungal growth by broth microdilution method
Candida tropicalis = assay: Antifungal activity against Candida tropicalis ATCC 750 assessed as inhibition of fungal growth by broth microdilution method
Candida albicans [6] = assay: Antifungal activity against Candida albicans ATCC 24433 overexpressing AD(1-8)u-assessed as inhibition of fungal growth by broth microdilution method
Candida parapsilosis = assay: Antifungal activity against Candida parapsilosis ATCC 90018 assessed as inhibition of fungal growth by broth microdilution method; conditions: Lodderomyces parapsilosis
[Candida] auris [7] = Antifungal activity against Candida auris 118 assessed as inhibition of fungal growth by broth microdilution method; conditions: Candidozyma auris
Candida albicans [8] = assay: Antifungal activity against Candida albicans ATCC 24433 assessed as inhibition of fungal growth by broth microdilution method
[Candida] auris [9] = Antifungal activity against wild type Candida auris 102 assessed as inhibition of fungal growth by broth microdilution method; conditions: Candidozyma auris
Candida albicans [10] = assay: Antifungal activity against Candida albicans ATCC 24433 overexpressing transporter protein GU4 assessed as inhibition of fungal growth by broth microdilution method
Candida albicans [11] = assay: Antifungal activity against Candida albicans ATCC 24433 overexpressing transporter protein F2 assessed as inhibition of fungal growth by broth microdilution method
[Candida] auris [12] = Antifungal activity against Candida auris 105 assessed as inhibition of fungal growth by broth microdilution method; conditions: Candidozyma auris
Nakaseomyces glabratus = assay: Antifungal activity against Candida glabrata ATCC 2001 assessed as inhibition of fungal growth by broth microdilution method
Candida albicans [13] = assay: Antifungal activity against Candida albicans ATCC 24433 overexpressing ADCaMDR1-GFP assessed as inhibition of fungal growth by broth microdilution method
Candida albicans [14] = assay: Synergistic antifungal activity against Candida albicans ATCC 24433 assessed as fractional inhibitory concentration index incubated for 48 hrs in presence of caspofungin by checker board assay
Candida albicans [15] = assay: Synergistic antifungal activity against Candida albicans ATCC 24433 overexpressing ADCDR1-GFP assessed as fractional inhibitory concentration index incubated for 48 hrs in presence of caspofungin by checker board assay
Candida albicans [16] = assay: Synergistic antifungal activity against Candida albicans ATCC 24433 overexpressing ADPDR5-G assessed as fractional inhibitory concentration index incubated for 48 hrs in presence of caspofungin by checker board assay
Candida albicans [17] = assay: Antifungal activity against wild type Candida albicans SN152 assessed as inhibition of fungal growth by broth microdilution method
Candida albicans [18] = assay: Synergistic antifungal activity against Candida albicans ATCC 24433 overexpressing ADCaMDR1-GFP assessed as fractional inhibitory concentration index incubated for 48 hrs in presence of caspofungin by checker board assay
Candida albicans [19] = assay: Antifungal activity against Candida albicans SN152 harboring CAS5 mutant assessed as inhibition of fungal growth by broth microdilution method

SMILES | MIC80 ([Candida] auris [1]) [µg/mL] | MIC80 (Candida albicans [2]) [µg/mL] | MIC80 (Candida albicans [3]) [µg/mL] | MIC80 (Candida albicans [4]) [µg/mL] | MIC80 (Candida albicans [5]) [µg/mL] | MIC80 (Candida tropicalis) [µg/mL] | MIC80 (Candida albicans [6]) [µg/mL] | MIC80 (Candida parapsilosis) [µg/mL] | MIC80 ([Candida] auris [7]) [µg/mL] | MIC80 (Candida albicans [8]) [µg/mL] | MIC80 ([Candida] auris [9]) [µg/mL] | MIC80 (Candida albicans [10]) [µg/mL] | MIC80 (Candida albicans [11]) [µg/mL] | MIC80 ([Candida] auris [12]) [µg/mL] | MIC80 (Nakaseomyces glabratus) [µg/mL] | MIC80 (Candida albicans [13]) [µg/mL] | fractional inhibitory concentration index (FICI) (Candida albicans [15]) | fractional inhibitory concentration index (FICI) (Candida albicans [16]) | MIC80 (Candida albicans [17]) [µg/mL] | fractional inhibitory concentration index (FICI) (Candida albicans [18]) | other results
COc1ccc(/C=C/[N+](=O)[O-])cc1OC | 8 (≈ 38.2 µM) | 16 (≈ 76.5 µM) | 16 (≈ 76.5 µM) | 32 (≈ 153 µM) | 16 (≈ 76.5 µM) | 16 (≈ 76.5 µM) | 16 (≈ 76.5 µM) | 32 (≈ 153 µM) | 4 (≈ 19.1 µM) | 32 (≈ 153 µM) | 4 (≈ 19.1 µM) | 32 (≈ 153 µM) | 16 (≈ 76.5 µM) | 8 (≈ 38.2 µM) | 32 (≈ 153 µM) | 16 (≈ 76.5 µM) |  |  |  |  | 
CC/C(=C\c1cccc([N+](=O)[O-])c1)[N+](=O)[O-] | 8 (≈ 36 µM) | 4 (≈ 18 µM) | 16 (≈ 72 µM) | 16 (≈ 72 µM) | 16 (≈ 72 µM) | 16 (≈ 72 µM) | 16 (≈ 72 µM) | 32 (≈ 144 µM) | 8 (≈ 36 µM) | 32 (≈ 144 µM) | 8 (≈ 36 µM) | 8 (≈ 36 µM) | 4 (≈ 18 µM) | 8 (≈ 36 µM) | 16 (≈ 72 µM) | 8 (≈ 36 µM) | <0.5 | <0.5 | 16 (≈ 72 µM) | <0.5 | fractional inhibitory concentration index (FICI) (Candida albicans [14]): <0.5; MIC80 (Candida albicans [19]): 8 µg/mL (≈ 36 µM)
O=[N+]([O-])/C=C/c1cccc(O)c1 | 8 (≈ 48.4 µM) | 8 (≈ 48.4 µM) | 16 (≈ 96.9 µM) | 16 (≈ 96.9 µM) | 4 (≈ 24.2 µM) | > 32 | 16 (≈ 96.9 µM) | 16 (≈ 96.9 µM) | 8 (≈ 48.4 µM) | 16 (≈ 96.9 µM) | 8 (≈ 48.4 µM) | 32 (≈ 194 µM) | 16 (≈ 96.9 µM) | 8 (≈ 48.4 µM) | 16 (≈ 96.9 µM) | 4 (≈ 24.2 µM) | <0.5 | <0.5 | 16 (≈ 96.9 µM) | <0.5 | MIC80 (Candida albicans [19]): 8 µg/mL (≈ 48.4 µM)
Nc1c(/N=N/c2ccc(-c3ccc(/N=N/c4cc(S(=O)(=O)[O-])c5ccccc5c4N)cc3)cc2)cc(S(=O)(=O)[O-])c2ccccc12.[Na+].[Na+] [CONGO RED] |  |  |  |  |  |  |  |  |  |  |  |  |  |  |  |  |  |  | 100 |  | MIC80 (Candida albicans [19]): 0.781 µg/mL
CC/C(=C\c1ccc(OC)c(OC)c1)[N+](=O)[O-] | 8 (≈ 33.7 µM) | 8 (≈ 33.7 µM) | 8 (≈ 33.7 µM) | 32 (≈ 135 µM) | 8 (≈ 33.7 µM) | 16 (≈ 67.4 µM) | 16 (≈ 67.4 µM) | 32 (≈ 135 µM) | 8 (≈ 33.7 µM) | 16 (≈ 67.4 µM) | 8 (≈ 33.7 µM) | 16 (≈ 67.4 µM) | 8 (≈ 33.7 µM) | 8 (≈ 33.7 µM) | 32 (≈ 135 µM) | 8 (≈ 33.7 µM) | <0.5 | <0.5 |  | <0.5 | 
